Source: ChEMBL document CHEMBL1681733, “Synthesis and evaluation of [(1R)-1-amino-2-(2,5-difluorophenyl)ethyl]cyclohexanes and 4-[(1R)-1-amino-2-(2,5-difluorophenyl)ethyl]piperidines as DPP-4 inhibitors” (Bioorg Med Chem Lett, 2011)

Key:
[1] = Clearance in rat at 1 mg/kg, iv and 2 mg/kg, po; type: ADME, organism-based; conditions: in vivo
[2] = Cmax in rat at 1 mg/kg, iv and 2 mg/kg, po; type: ADME, organism-based; conditions: in vivo
[3] = biological target: T1, Prolyl endopeptidase FAP (Homo sapiens, UniProt Q12884); test: Inhibition of FAP
T1 sequence (Q12884 whole entry): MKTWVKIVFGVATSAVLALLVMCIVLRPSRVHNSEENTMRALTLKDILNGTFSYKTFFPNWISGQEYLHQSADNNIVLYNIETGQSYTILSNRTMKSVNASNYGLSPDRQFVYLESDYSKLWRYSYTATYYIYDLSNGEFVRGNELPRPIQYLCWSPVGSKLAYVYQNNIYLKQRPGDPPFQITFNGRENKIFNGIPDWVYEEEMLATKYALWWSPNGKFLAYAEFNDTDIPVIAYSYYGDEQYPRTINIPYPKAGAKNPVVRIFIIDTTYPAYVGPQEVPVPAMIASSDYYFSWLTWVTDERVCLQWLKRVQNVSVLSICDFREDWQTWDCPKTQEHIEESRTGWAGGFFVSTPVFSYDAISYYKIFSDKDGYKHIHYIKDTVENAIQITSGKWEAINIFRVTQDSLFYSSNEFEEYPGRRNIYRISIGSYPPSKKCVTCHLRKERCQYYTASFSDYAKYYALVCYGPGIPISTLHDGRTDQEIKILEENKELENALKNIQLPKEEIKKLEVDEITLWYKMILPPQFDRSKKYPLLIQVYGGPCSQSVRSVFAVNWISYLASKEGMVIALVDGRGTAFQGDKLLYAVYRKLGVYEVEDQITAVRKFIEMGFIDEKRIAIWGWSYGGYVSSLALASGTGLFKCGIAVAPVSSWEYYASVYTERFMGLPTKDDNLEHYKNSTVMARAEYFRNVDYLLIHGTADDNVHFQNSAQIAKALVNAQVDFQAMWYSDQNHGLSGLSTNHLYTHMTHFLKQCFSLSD

[4] = Oral bioavailability in rat at 2 mg/kg; type: ADME, organism-based; conditions: in vivo
[5] = Half life in rat at 1 mg/kg, iv and 2 mg/kg, po; type: ADME, organism-based; conditions: in vivo
[6] = biological target: Dipeptidyl peptidase 8 (Homo sapiens, UniProt Q6V1X1); test: Inhibition of DPP8
Chain of Dipeptidyl peptidase 8 (Q6V1X1 whole entry): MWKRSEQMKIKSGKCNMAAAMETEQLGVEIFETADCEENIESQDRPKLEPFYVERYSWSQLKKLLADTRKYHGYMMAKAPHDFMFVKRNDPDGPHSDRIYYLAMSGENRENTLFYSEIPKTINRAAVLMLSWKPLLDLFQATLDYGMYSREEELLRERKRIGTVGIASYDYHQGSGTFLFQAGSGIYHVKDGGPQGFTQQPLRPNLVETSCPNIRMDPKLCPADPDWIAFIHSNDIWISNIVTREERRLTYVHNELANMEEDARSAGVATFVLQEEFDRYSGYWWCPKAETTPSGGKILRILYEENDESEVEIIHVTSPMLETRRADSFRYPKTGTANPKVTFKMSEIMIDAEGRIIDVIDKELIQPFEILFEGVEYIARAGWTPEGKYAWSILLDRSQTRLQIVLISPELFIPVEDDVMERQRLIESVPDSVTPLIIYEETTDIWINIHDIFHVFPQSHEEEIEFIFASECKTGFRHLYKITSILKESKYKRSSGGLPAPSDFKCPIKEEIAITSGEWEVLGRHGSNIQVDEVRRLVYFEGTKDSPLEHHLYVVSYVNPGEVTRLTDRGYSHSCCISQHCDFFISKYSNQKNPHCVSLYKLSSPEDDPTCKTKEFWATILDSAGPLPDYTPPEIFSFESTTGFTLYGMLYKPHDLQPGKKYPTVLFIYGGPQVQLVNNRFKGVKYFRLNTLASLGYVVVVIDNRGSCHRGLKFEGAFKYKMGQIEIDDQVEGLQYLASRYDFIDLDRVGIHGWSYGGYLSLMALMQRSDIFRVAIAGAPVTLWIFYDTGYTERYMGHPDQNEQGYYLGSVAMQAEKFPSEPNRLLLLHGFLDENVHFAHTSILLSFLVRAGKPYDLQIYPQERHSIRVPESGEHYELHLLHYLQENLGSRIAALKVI

[7] = biological target: Dipeptidyl peptidase 2 (Homo sapiens, UniProt Q9UHL4); test: Inhibition of QPP
[8] = biological target: Dipeptidyl peptidase 4 (Homo sapiens, UniProt P27487)
Chain of Dipeptidyl peptidase 4 (P27487 whole entry): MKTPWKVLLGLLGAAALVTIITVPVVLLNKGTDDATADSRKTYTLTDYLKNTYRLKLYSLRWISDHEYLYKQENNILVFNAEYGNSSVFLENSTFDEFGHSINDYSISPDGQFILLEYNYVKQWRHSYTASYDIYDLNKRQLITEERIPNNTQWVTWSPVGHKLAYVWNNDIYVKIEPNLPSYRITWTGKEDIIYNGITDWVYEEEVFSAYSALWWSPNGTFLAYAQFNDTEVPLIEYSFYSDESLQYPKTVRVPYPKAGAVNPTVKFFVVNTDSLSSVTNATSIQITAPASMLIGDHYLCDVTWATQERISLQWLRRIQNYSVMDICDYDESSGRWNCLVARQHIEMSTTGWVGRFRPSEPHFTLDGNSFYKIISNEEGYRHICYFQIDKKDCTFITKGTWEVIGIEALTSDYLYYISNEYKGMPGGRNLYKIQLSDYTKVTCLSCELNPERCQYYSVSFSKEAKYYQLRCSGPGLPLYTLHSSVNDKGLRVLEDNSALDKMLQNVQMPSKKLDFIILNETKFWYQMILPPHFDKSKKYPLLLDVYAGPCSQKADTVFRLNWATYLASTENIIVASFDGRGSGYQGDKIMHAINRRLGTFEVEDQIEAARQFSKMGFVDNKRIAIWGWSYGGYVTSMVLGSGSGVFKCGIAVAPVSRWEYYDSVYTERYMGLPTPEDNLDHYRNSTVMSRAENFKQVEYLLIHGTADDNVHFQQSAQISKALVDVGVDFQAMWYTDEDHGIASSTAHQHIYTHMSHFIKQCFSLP

[9] = biological target: Dipeptidyl peptidase 9 (Homo sapiens, UniProt Q86TI2); test: Inhibition of DPP9
Chain of Dipeptidyl peptidase 9 (Q86TI2 whole entry): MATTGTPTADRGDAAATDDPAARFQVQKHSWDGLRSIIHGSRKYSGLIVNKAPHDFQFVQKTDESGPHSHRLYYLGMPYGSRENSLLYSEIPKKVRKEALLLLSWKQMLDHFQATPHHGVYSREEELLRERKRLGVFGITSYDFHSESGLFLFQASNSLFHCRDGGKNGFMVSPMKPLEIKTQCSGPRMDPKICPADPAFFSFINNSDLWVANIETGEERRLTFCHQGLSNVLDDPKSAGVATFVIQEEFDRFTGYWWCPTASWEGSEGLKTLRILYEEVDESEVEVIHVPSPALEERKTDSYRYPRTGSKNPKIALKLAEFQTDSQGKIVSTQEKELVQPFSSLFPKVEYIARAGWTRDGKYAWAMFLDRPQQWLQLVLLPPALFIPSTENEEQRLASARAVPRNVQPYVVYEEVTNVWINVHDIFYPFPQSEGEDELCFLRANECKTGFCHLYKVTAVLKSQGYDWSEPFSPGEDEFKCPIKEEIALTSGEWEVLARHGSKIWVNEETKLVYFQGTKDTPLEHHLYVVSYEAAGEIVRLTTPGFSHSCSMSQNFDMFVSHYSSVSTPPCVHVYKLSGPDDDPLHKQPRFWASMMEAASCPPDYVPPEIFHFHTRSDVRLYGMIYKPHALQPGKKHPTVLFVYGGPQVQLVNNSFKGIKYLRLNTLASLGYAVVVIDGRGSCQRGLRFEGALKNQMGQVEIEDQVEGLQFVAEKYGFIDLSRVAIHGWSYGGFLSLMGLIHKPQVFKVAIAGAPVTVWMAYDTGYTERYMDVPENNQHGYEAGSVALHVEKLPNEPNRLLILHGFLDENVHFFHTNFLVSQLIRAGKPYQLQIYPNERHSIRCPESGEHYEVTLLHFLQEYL

| clearance [1] | Cmax [2] | IC50 [3] | bioavailability [4] | half-life [5] | IC50 [6] | IC50 [7] | IC50 [8] | IC50 [9] | SMILES |
| --- | --- | --- | --- | --- | --- | --- | --- | --- | --- |
| 204 mL/min/kg | 19 nM | > 35 µM | 13% | – | – | – | – | – | CN([C@H]1CC[C@H]([C@H](N)Cc2cc(F)ccc2F)CC1)S(=O)(=O)c1cccc(C(N)=O)c1 |
| 180 mL/min/kg | 190 nM | > 35 µM | 25% | 3.5 h | > 100 µM | 8.5 µM | 0.094 µM | – | CN([C@H]1CC[C@H]([C@H](N)Cc2cc(F)ccc2F)CC1)S(=O)(=O)c1ccc(-c2csnn2)cc1 |
| 116 mL/min/kg | 32 nM | > 35 µM | 2.2% | 3 h | > 100 µM | 63 µM | 0.055 µM | > 100 µM | Cc1noc(C)c1S(=O)(=O)N(C)[C@H]1CC[C@H]([C@H](N)Cc2cc(F)ccc2F)CC1 |
| 177 mL/min/kg | 120 nM | > 35 µM | 9.7% | 1 h | – | 83 µM | 0.12 µM | – | CC(=O)N(C)[C@H]1CC[C@H]([C@H](N)Cc2cc(F)ccc2F)CC1 |
| – | – | > 35 µM | – | – | > 100 µM | > 100 µM | 0.14 µM | > 100 µM | CN(C(=O)CCC(=O)O)[C@H]1CC[C@H]([C@H](N)Cc2cc(F)ccc2F)CC1 |
| – | – | > 35 µM | – | – | > 100 µM | > 100 µM | 0.26 µM | > 100 µM | CCN(C(C)=O)[C@H]1CC[C@H]([C@H](N)Cc2cc(F)ccc2F)CC1 |
| – | – | > 35 µM | – | – | > 100 µM | 51 µM | 0.1 µM | > 100 µM | CC(=O)N(CCCC(F)(F)F)[C@H]1CC[C@H]([C@H](N)Cc2cc(F)ccc2F)CC1 |
| 201 mL/min/kg | 24 nM | > 35 µM | 24% | 2.1 h | – | – | – | – | NC(=O)[C@@H]1CCCN([C@H]2CC[C@H]([C@H](N)Cc3cc(F)ccc3F)CC2)C1 |
| – | – | > 35 µM | – | – | > 100 µM | 66 µM | 0.45 µM | > 100 µM | CC(=O)N1CCC([C@H](N)Cc2cc(F)ccc2F)CC1 |
| 154 mL/min/kg | 69 nM | > 35 µM | 22% | 2.8 h | – | – | – | – | Cc1ccc(N2CCC([C@H](N)Cc3cc(F)ccc3F)CC2)c(C)n1 |
| 171 mL/min/kg | 19 nM | > 35 µM | 4.5% | 0.92 h | – | – | – | – | N[C@H](Cc1cc(F)ccc1F)C1CCN(c2cncnc2)CC1 |
